# From patent publication US20120177697A1, “Excipients In Drug Delivery Vehicles” (Durect Corporation, priority 2003, published 2012)
# Structures can show the parent of a compound that is named as a salt.
# Key:
# [1] = Saturation concentration in de-ionized water; format: physicochemical; conditions: DI water
# Procedure: Bupivacaine hydrochloride (Sigma-Aldrich Corporation, St. Louis, Mo.) was dissolved in de-ionized (DI) water at a concentration of 40 mg/ml (saturation). A calculated amount of sodium hydroxide (1 N solution) was added to the solution and the pH of the final mixtures was adjusted to 10 to precipitate the BP base. The precipitated product was filtered, and further washed with DI water for at least three times. The precipitated product was dried at approximately 40° C. in vacuum for 24 hours.
# [2] = cited from earlier work
SMILES,concentration in de-ionized water at saturation [1],reported solubility in water [2]
CCCCN1CCCCC1C(=O)Nc1c(C)cccc1C (centres unmarked) [Bupivacaine hydrochloride],40000 µg/mL,–
CC(=O)OCC(COC(C)=O)OC(C)=O [triacetin],–,7.17 grams in 100 ml of water
